Test results: ChEMBL document CHEMBL3045404, “Structure-Activity Relationships of 2-Chloropyridine-3-carboxamide Fungicides” (J Pestic Sci, 1992)

Columns and labels:
Rhizoctonia solani = test: Antifungal activity against Rhizoctonia solani infested in rice seedling incubated for 40 hr in moist chamber followed by incubation for 3 days in greenhouse conditions; type: functional, organism-based
Botrytis cinerea = test: Antifungal activity against Botryotinia fuckeliana infested in cucumber seedling cotyledons after 4 days by pot test; type: functional

With `CC1CC(C)(C)c2cccc(NC(=O)c3cccnc3Cl)c21` (stereo unspecified) the EC50 (Rhizoctonia solani) was 7.76 µM and the pEC90 (Botrytis cinerea) was 4.7.
`O=C(Nc1ccccc1-c1ccccc1)c1cccnc1Cl` was tested, and the EC50 (Rhizoctonia solani) was > 6310 µM and the pEC90 (Botrytis cinerea) was 2.8.
`O=C(Nc1cccc2c1CCC2)c1cccnc1Cl` gave an EC50 (Rhizoctonia solani) of 692 µM and a pEC90 (Botrytis cinerea) of 2.68.
In the case of `O=C(Nc1ccccc1)c1cccnc1Cl`, the EC50 (Rhizoctonia solani) is reported as 1000 µM and the pEC90 (Botrytis cinerea) is reported as 2.2.
`CCc1cccc(NC(=O)c2cccnc2Cl)c1` was tested, and the EC50 (Rhizoctonia solani) was 158 µM and the pEC90 (Botrytis cinerea) was <2.2.
With `CCOc1cccc(NC(=O)c2cccnc2Cl)c1` the EC50 (Rhizoctonia solani) was 85.1 µM and the pEC90 (Botrytis cinerea) was <2.2.
In the case of `CC(C)Oc1cccc(NC(=O)c2cccnc2Cl)c1`, the EC50 (Rhizoctonia solani) is reported as 57.5 µM and the pEC90 (Botrytis cinerea) is reported as <2.2.
Work on `CCc1ccccc1NC(=O)c1cccnc1Cl` yielded an EC50 (Rhizoctonia solani) of 2000 µM and a pEC90 (Botrytis cinerea) of 2.57.
For `CC(C)c1ccccc1NC(=O)c1cccnc1Cl`, the EC50 (Rhizoctonia solani) was 1510 µM and the pEC90 (Botrytis cinerea) was 3.19.
In the case of `CCOc1ccccc1NC(=O)c1cccnc1Cl`, the EC50 (Rhizoctonia solani) is reported as 1100 µM and the pEC90 (Botrytis cinerea) is reported as 2.48.
Compound `C=C(C)c1ccccc1NC(=O)c1cccnc1Cl` has an EC50 (Rhizoctonia solani) of 1170 µM and a pEC90 (Botrytis cinerea) of 3.78.
`CCOc1c(NC(=O)c2cccnc2Cl)cccc1C(C)C` was tested, and the EC50 (Rhizoctonia solani) was 112 µM and the pEC90 (Botrytis cinerea) was 3.32.
`CCc1c(C)cccc1NC(=O)c1cccnc1Cl` showed an EC50 (Rhizoctonia solani) of 724 µM and a pEC90 (Botrytis cinerea) of 2.96.
With `CC1CCc2cccc(NC(=O)c3cccnc3Cl)c21` (stereo unspecified) the EC50 (Rhizoctonia solani) was 631 µM and the pEC90 (Botrytis cinerea) was 4.15.
`CC1Cc2cccc(NC(=O)c3cccnc3Cl)c2C1` (stereo unspecified) showed an EC50 (Rhizoctonia solani) of 692 µM and a pEC90 (Botrytis cinerea) of 3.11.
`CC1CCc2c(NC(=O)c3cccnc3Cl)cccc21` (stereo unspecified) was tested, and the EC50 (Rhizoctonia solani) was 52.5 µM and the pEC90 (Botrytis cinerea) was 3.03.
In the case of `CC1(C)CCc2c(NC(=O)c3cccnc3Cl)cccc21`, the EC50 (Rhizoctonia solani) is reported as 28.8 µM and the pEC90 (Botrytis cinerea) is reported as 2.97.
Compound `CCC1CC(C)(C)c2cccc(NC(=O)c3cccnc3Cl)c21` (stereo unspecified) has an EC50 (Rhizoctonia solani) of 7.24 µM and a pEC90 (Botrytis cinerea) of 4.75.
`CCC1CC(C)(CC)c2cccc(NC(=O)c3cccnc3Cl)c21` (stereo unspecified) showed an EC50 (Rhizoctonia solani) of 33.9 µM and a pEC90 (Botrytis cinerea) of 4.58.
Compound `CC1SCc2cccc(NC(=O)c3cccnc3Cl)c21` (stereo unspecified) has an EC50 (Rhizoctonia solani) of 933 µM and a pEC90 (Botrytis cinerea) of 2.93.
Work on `CC1OCc2cccc(NC(=O)c3cccnc3Cl)c21` (stereo unspecified) yielded an EC50 (Rhizoctonia solani) of 525 µM and a pEC90 (Botrytis cinerea) of 2.93.
In the case of `CC1OC(C)(C)c2cccc(NC(=O)c3cccnc3Cl)c21` (stereo unspecified), the EC50 (Rhizoctonia solani) is reported as 14.1 µM and the pEC90 (Botrytis cinerea) is reported as 3.93.
For `CCC1OC(C)(C)c2cccc(NC(=O)c3cccnc3Cl)c21` (stereo unspecified), the EC50 (Rhizoctonia solani) was 12.3 µM and the pEC90 (Botrytis cinerea) was 3.55.
For `O=C(Nc1cccc2c1OCC2)c1cccnc1Cl`, the EC50 (Rhizoctonia solani) was 1620 µM and the pEC90 (Botrytis cinerea) was <2.2.
`CC1(C)Cc2cccc(NC(=O)c3cccnc3Cl)c2O1` showed an EC50 (Rhizoctonia solani) of 214 µM and a pEC90 (Botrytis cinerea) of 3.84.
In the case of `CCCCC1(CC)Cc2cccc(NC(=O)c3cccnc3Cl)c2O1` (stereo unspecified), the EC50 (Rhizoctonia solani) is reported as 1550 µM and the pEC90 (Botrytis cinerea) is reported as 3.04.
In the case of `Cc1oc2cccc(NC(=O)c3cccnc3Cl)c2c1C`, the EC50 (Rhizoctonia solani) is reported as 603 µM and the pEC90 (Botrytis cinerea) is reported as <2.2.
With `CC1Oc2cccc(NC(=O)c3cccnc3Cl)c2C1C` (stereo unspecified) the EC50 (Rhizoctonia solani) was 631 µM and the pEC90 (Botrytis cinerea) was <2.2.
`CC1(C)Oc2cccc(NC(=O)c3cccnc3Cl)c2O1` showed an EC50 (Rhizoctonia solani) of 759 µM and a pEC90 (Botrytis cinerea) of 2.76.
Work on `CC1(C)CCc2cccc(NC(=O)c3cccnc3Cl)c2O1` yielded an EC50 (Rhizoctonia solani) of 1450 µM and a pEC90 (Botrytis cinerea) of 3.66.
In the case of `CCC1(CC)CCc2cccc(NC(=O)c3cccnc3Cl)c2O1`, the EC50 (Rhizoctonia solani) is reported as 1150 µM and the pEC90 (Botrytis cinerea) is reported as 4.41.
Compound `CC1(C)OCc2cccc(NC(=O)c3cccnc3Cl)c2O1` has an EC50 (Rhizoctonia solani) of 1450 µM and a pEC90 (Botrytis cinerea) of 3.29.
In the case of `CCC1(C)Oc2c(NC(=O)c3cccnc3Cl)cccc2C(C)O1` (stereo unspecified), the EC50 (Rhizoctonia solani) is reported as 13.2 µM and the pEC90 (Botrytis cinerea) is reported as 3.57.
